From the supplement of paper PMC4862054

Key:
DU-4475 [1] = conditions: 72 h
In short: (§1)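 For viability and cell death testing, 384-well plates carried compound at 5 concentrations in 10-fold steps over a compound-specific 10,000-fold range, and breast cancer cell lines were seeded in 20 µl suspension. After 72 h incubation, cell death was read by CellTox Green fluorescence (485/520 nm) before viability was read by CellTiter-Glo luminescence. EC50 was fitted from the dose-response curves and censored at the top concentration. Normalisation on each plate was to 0.1 % DMSO and a positive kill control.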

MDA-MB-436 = conditions: 72 h
In short: as §1

MCF-10A = conditions: 72 h
In short: as §1

HCC1937 [2] = conditions: 72 h
In short: as §1

CAL-85-1 [3] = conditions: 72 h
In short: as §1

MDA-MB-231 [4] = conditions: 72 h
In short: as §1

BT-549 [5] = conditions: 72 h
In short: as §1

HCC1143 [6] = conditions: 72 h
In short: as §1

Hs578T [7] = conditions: 72 h
In short: as §1

CAL-120 [8] = conditions: 72 h
In short: as §1

MFM-223 [9] = conditions: 72 h
In short: as §1

CAL-148 [10] = conditions: 72 h
In short: as §1

DU-4475 [11] = conditions: 72 h; remark: listed apart in the source
Protocol: (§2)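 Drug sensitivity and resistance testing (DSRT) of breast cancer cell lines in 384-well plates, 5 concentrations in 10-fold dilutions over a compound-specific 10,000-fold range. After 72 h, cytotoxicity was read by CellTox Green fluorescence and viability by CellTiter-Glo luminescence (multiplexed), normalised to DMSO and benzethonium chloride controls. EC50 is the inflection point of the fitted dose-response curve (bottom asymptote free, so it can be relative for partial curves) and is censored at the highest tested concentration. Rows with DSS 0 (no meaningful response) were excluded.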

CAL-85-1 [12] = conditions: 72 h; remark: listed apart in the source
Protocol: as §2

MDA-MB-231 [13] = conditions: 72 h; remark: listed apart in the source
Protocol: as §2

MDA-MB-468 [14] = conditions: 72 h
Protocol: as §2

CAL-120 [15] = conditions: 72 h; remark: listed apart in the source
Protocol: as §2

CAL-51 [16] = conditions: 72 h
In short: as §1

CAL-51 [17] = conditions: 72 h; remark: listed apart in the source
In short: (§3)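 EC50 is the value from a fitted percent-inhibition dose-response curve, censored at the highest concentration, and rows with zero drug sensitivity score were not kept. The underlying assay seeded breast cancer cell lines in 20 µl onto 384-well plates pre-loaded with compound in 5 µl medium for 72 h. Viability was then read by CellTiter-Blue fluorescence at 560/590 nm after 2 h at 37 °C, with each plate normalised to vehicle and a positive kill control.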

HCC1937 [18] = conditions: 72 h; remark: listed apart in the source
In short: as §3

CAL-51 [19] = conditions: 72 h; remark: listed apart in the source
Protocol: as §2

MDA-MB-468 [20] = assay: normalised viability (% of control), CellTiter-Blue; higher = more viable cells (about 100 = DMSO control); conditions: incubation time: 72 h
In short: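 The reported figure is normalised viability at a single listed concentration of the series. Breast cancer cell lines (20 µl suspension) went onto 384-well plates holding compound in 5 µl medium for 72 h. CellTiter-Blue (2.5 µl, 2 h, 37 °C) was read by fluorescence at 560/590 nm, and each plate was scaled to vehicle at 100 and a positive kill control at 0.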

MDA-MB-453 [21] = conditions: 72 h
In short: as §3

SK-BR-3 [22] = conditions: 72 h
In short: as §1

MDA-MB-453 [23] = conditions: 72 h; remark: listed apart in the source
In short: as §1

DU-4475 [24] = conditions: 72 h; remark: listed apart in the source
In short: as §3

CAL-85-1 [25] = conditions: 72 h; remark: listed apart in the source
In short: as §3

CAL-148 [26] = conditions: 72 h; remark: listed apart in the source
In short: as §3

SK-BR-3 [27] = conditions: 72 h; remark: listed apart in the source
In short: as §3

HCC1599 [28] = conditions: 72 h
In short: as §3

MDA-MB-231 [29] = conditions: 72 h; remark: listed apart in the source
In short: as §3

BT-549 [30] = conditions: 72 h; remark: listed apart in the source
In short: as §3

HCC1143 [31] = conditions: 72 h; remark: listed apart in the source
In short: as §3

MDA-MB-468 [32] = conditions: 72 h; remark: listed apart in the source
In short: as §3

Hs578T [33] = conditions: 72 h; remark: listed apart in the source
In short: as §3

CAL-120 [34] = conditions: 72 h; remark: listed apart in the source
In short: as §3

MFM-223 [35] = conditions: 72 h; remark: listed apart in the source
In short: as §3

HCC1937 [36] = conditions: 72 h; remark: listed apart in the source
Protocol: as §2

CAL-148 [37] = conditions: 72 h; remark: listed apart in the source
Protocol: as §2

HCC1599 [38] = conditions: 72 h; remark: listed apart in the source
In short: as §1

HDQ-P1 [39] = conditions: 72 h
In short: as §3

HDQ-P1 [40] = conditions: 72 h; remark: listed apart in the source
Protocol: as §2

SMILES: COc1cc(F)c(F)c(Nc2ccc(I)cc2F)c1NS(=O)(=O)C1(C[C@H](O)CO)CC1 [Refametinib]
- EC50, CellTiter-Glo (DU-4475 [1]): 63.6 nM
- EC50, CellTiter-Glo (MDA-MB-436): 6630 nM
- EC50, CellTiter-Glo (MCF-10A): 6.98 nM
- EC50, CellTiter-Glo (HCC1937 [2]): 5050 nM
- EC50, CellTiter-Glo (CAL-85-1 [3]): 840 nM
- EC50, CellTiter-Glo (MDA-MB-231 [4]): 429 nM
- EC50, CellTiter-Glo (BT-549 [5]): 2210 nM
- EC50, CellTiter-Glo (HCC1143 [6]): 1620 nM
- EC50, CellTiter-Glo (Hs578T [7]): 6150 nM
- EC50, CellTiter-Glo (CAL-120 [8]): 315 nM
- EC50, CellTiter-Glo (MFM-223 [9]): 6030 nM
- EC50, CellTiter-Glo (CAL-148 [10]): 6680 nM
- EC50, CellTox Green (DU-4475 [11]): 110 nM
- EC50, CellTox Green (CAL-85-1 [12]): 788 nM
- EC50, CellTox Green (MDA-MB-231 [13]): 23.2 nM
- EC50, CellTox Green (MDA-MB-468 [14]): 2690 nM
- EC50, CellTox Green (CAL-120 [15]): > 10000 nM

SMILES: O=C1CN2Cc3c(ccc(Cl)c3Cl)N=C2N1 [Anagrelide]
- EC50, CellTiter-Glo (CAL-51 [16]): > 10000 nM
- EC50, CellTiter-Blue viability (CAL-51 [17]): 77.5 nM
- EC50, CellTiter-Blue viability (HCC1937 [18]): 398 nM
- EC50, CellTox Green (CAL-51 [19]): 30.6 nM
- normalised viability (MDA-MB-468 [20]; 10 nM): 106%
- normalised viability (MDA-MB-468 [20]; 1000 nM): 103%
- normalised viability (MDA-MB-468 [20]; 10000 nM): 111%

SMILES: CC[C@@H]1C(=O)OC[C@@H]1Cc1cncn1C [Pilocarpine]
- EC50, CellTiter-Blue viability (MDA-MB-453 [21]): 38300 nM
- normalised viability (MDA-MB-468 [20]; 40 nM): 95.2%
- normalised viability (MDA-MB-468 [20]; 4000 nM): 99%
- normalised viability (MDA-MB-468 [20]; 40000 nM): 109%

SMILES: CC1(C)CNc2cc(NC(=O)c3cccnc3NCc3ccncc3)ccc21 [Motesanib]
- normalised viability (MDA-MB-468 [20]; 10 nM): 88.3%
- normalised viability (MDA-MB-468 [20]; 1000 nM): 85.3%
- normalised viability (MDA-MB-468 [20]; 10000 nM): 88.2%

SMILES: CC1=C2C[C@H]3[C@@H](CC=C4C[C@@H](O)CC[C@@]43C)[C@@H]2CC[C@]12O[C@@H]1C[C@H](C)CN[C@H]1[C@H]2C [Cyclopamine]
- normalised viability (MDA-MB-468 [20]; 10 nM): 100%
- normalised viability (MDA-MB-468 [20]; 1000 nM): 102%
- normalised viability (MDA-MB-468 [20]; 10000 nM): 90.9%

SMILES: Cc1sc2c(c1C)C(c1ccc(Cl)cc1)=N[C@@H](CC(=O)OC(C)(C)C)c1nnc(C)n1-2 [(+)JQ1]
- EC50, CellTiter-Glo (SK-BR-3 [22]): 494 nM
- EC50, CellTiter-Glo (DU-4475 [1]): 956 nM
- EC50, CellTiter-Glo (MDA-MB-436): 749 nM
- EC50, CellTiter-Glo (MDA-MB-453 [23]): 447 nM
- EC50, CellTiter-Glo (MCF-10A): 254 nM
- EC50, CellTiter-Glo (CAL-51 [16]): 7440 nM
- EC50, CellTiter-Glo (HCC1937 [2]): 720 nM
- EC50, CellTiter-Glo (CAL-85-1 [3]): 316 nM
- EC50, CellTiter-Glo (MDA-MB-231 [4]): 653 nM
- EC50, CellTiter-Glo (BT-549 [5]): 167 nM
- EC50, CellTiter-Glo (HCC1143 [6]): 753 nM
- EC50, CellTiter-Glo (Hs578T [7]): 126 nM
- EC50, CellTiter-Glo (CAL-120 [8]): 231 nM
- EC50, CellTiter-Glo (MFM-223 [9]): 481 nM
- EC50, CellTiter-Glo (CAL-148 [10]): 920 nM
- EC50, CellTiter-Blue viability (DU-4475 [24]): 339 nM
- EC50, CellTiter-Blue viability (MDA-MB-453 [21]): 172 nM
- EC50, CellTiter-Blue viability (CAL-51 [17]): 1040 nM
- EC50, CellTiter-Blue viability (CAL-85-1 [25]): 254 nM
- EC50, CellTiter-Blue viability (CAL-148 [26]): 676 nM
- EC50, CellTiter-Blue viability (SK-BR-3 [27]): 337 nM
- EC50, CellTiter-Blue viability (HCC1937 [18]): 468 nM
- EC50, CellTiter-Blue viability (HCC1599 [28]): 406 nM
- EC50, CellTiter-Blue viability (MDA-MB-231 [29]): 265 nM
- EC50, CellTiter-Blue viability (BT-549 [30]): 320 nM
- EC50, CellTiter-Blue viability (HCC1143 [31]): 354 nM
- EC50, CellTiter-Blue viability (MDA-MB-468 [32]): 871 nM
- EC50, CellTiter-Blue viability (Hs578T [33]): 122 nM
- EC50, CellTiter-Blue viability (CAL-120 [34]): 114 nM
- EC50, CellTiter-Blue viability (MFM-223 [35]): 243 nM
- EC50, CellTox Green (CAL-51 [19]): 2330 nM
- EC50, CellTox Green (HCC1937 [36]): 10 nM
- EC50, CellTox Green (CAL-85-1 [12]): 2020 nM
- EC50, CellTox Green (MDA-MB-468 [14]): 1830 nM
- EC50, CellTox Green (CAL-148 [37]): 687 nM
- normalised viability (MDA-MB-468 [20]; 10 nM): 107%
- normalised viability (MDA-MB-468 [20]; 1000 nM): 71.8%
- normalised viability (MDA-MB-468 [20]; 10000 nM): 52.2%

SMILES: Cn1cnc2c(F)c(Nc3ccc(Br)cc3Cl)c(C(=O)NOCCO)cc21 [Selumetinib]
- EC50, CellTiter-Glo (DU-4475 [1]): 210 nM
- EC50, CellTiter-Glo (MCF-10A): 20.4 nM
- EC50, CellTiter-Glo (HCC1599 [38]): 1670 nM
- EC50, CellTiter-Glo (MDA-MB-231 [4]): 313 nM
- EC50, CellTiter-Glo (CAL-120 [8]): 9280 nM
- EC50, CellTiter-Blue viability (DU-4475 [24]): 70.8 nM
- EC50, CellTiter-Blue viability (HDQ-P1 [39]): 159 nM
- EC50, CellTiter-Blue viability (CAL-85-1 [25]): 563 nM
- EC50, CellTiter-Blue viability (HCC1937 [18]): 1070 nM
- EC50, CellTiter-Blue viability (HCC1599 [28]): 283 nM
- EC50, CellTiter-Blue viability (MDA-MB-231 [29]): 214 nM
- EC50, CellTiter-Blue viability (HCC1143 [31]): 23 nM
- EC50, CellTiter-Blue viability (Hs578T [33]): > 10000 nM
- EC50, CellTiter-Blue viability (CAL-120 [34]): 7500 nM
- EC50, CellTox Green (DU-4475 [11]): 172 nM
- EC50, CellTox Green (HDQ-P1 [40]): 324 nM
- EC50, CellTox Green (MDA-MB-231 [13]): 724 nM
- EC50, CellTox Green (MDA-MB-468 [14]): 2460 nM
- normalised viability (MDA-MB-468 [20]; 10 nM): 106%
- normalised viability (MDA-MB-468 [20]; 1000 nM): 95%
- normalised viability (MDA-MB-468 [20]; 10000 nM): 69.5%
